Source: US11026946B2, “Pharmacologically active alicyclic-substituted pyrazolo[1,5-a]pyrimidine derivatives” (RICHTER GEDEON NYRT., priority 2017, dated 2021)

Experiments:
GABAB receptor = target: T1, GABAB receptor (Rattus norvegicus, UniProt O88871+Q9Z0U4); experiment: In vitro [35S]GTPγS binding assay in rat cortical membranes; type: biochemical; settings: PAM EC50, [35S]GTPγS binding, read-out: In vitro PAM potency
T1 construct: from tissue; host or cells: rat brain cortex membranes
Protocol: In Vitro [^35S]GTPγS Binding Assay in Rat Cortical Membranes
Cortices of freshly harvested rat brains were dissected on an ice-cold surface and homogenized by a glass Dounce homogeniser immediately in ice-cold buffer containing 50 mM Tris, 5 mM MgCl2 and 1 mM EDTA (pH=7.6). Tissue homogenates were centrifuged at 40000 g for 15 min at 4° C. Membrane pellets were resuspended in the same buffer and membranes were incubated for 10 min at 30° C. in a shaking water bath to eliminate endogenous GABA. Homogenates were centrifuged again under the same conditions. The final pellets were resuspended in ice-cold buffer (pH=7.6) containing 50 mM Tris, 100 mM NaCl, 7 mM MgCl2, 1 mM EDTA and 1 mM dithiotreithol (DTT) to yield a concentration of 20 mg tissue weight/ml and frozen at −70° C. until use. The assay was done in a buffer containing 50 mM Tris (pH=7.4), 100 mM NaCl, 7 mM MgCl2, 1 mM EDTA and 1 mM DTT. Each assay tube contained 150 μL GDP (in a final concentration of 50 μM), 100 μL ligand and 125 μL of the membrane suspension (250 μg tissue/tube). The assay tubes were preincubated for 10 min at 30° C. to assure equilibrium. Nonspecific binding was determined in the presence of 10 μM GTPγS: basal binding was determined in the presence of buffer only. After addition of 50 pM [^35S]GTPγS in a volume of 25 μL to the tubes, membranes were incubated for an additional 60 min at 30° C. The assay was terminated by rapid filtration through Packard UniFilter GF/B using a Packard harvester and washed four times with 1 ml ice-cold buffer. After drying the filters at 40° C. for 1 h, 40 μL Microscint (Packard) was added to the filters and radioactivity of the filters was determined by a TopCount NXT (PerkinElmer, Waltham, Mass.: Alper and Nelson, Eur. J. Pharmacol. 1998, 343, 303-312; Rinken et al, Biochem. Pharmacol. 1999, 57, 155-162). Data thus gathered were used to determine PAM EC50 values for each compound as primary in vitro activity end point.

adult rats = experiment: Foot shock-induced ultrasonic vocalization (USV) in adult rats; type: in vivo, rat; settings: 1 mg/kg per os, 1 h before shocking, male Wistar rats, versus vehicle
Protocol: Foot Shock-Induced Ultrasonic Vocalization (USV) in Adult Rats
(§1) Under stressful conditions, adult rats emit 22 kHz ultrasounds that can be reduced by various pharmacological treatments (De Vry et al, Eur. J. Pharmacol. 1993, 249, 331-339; Sanchez, Eur. J. Pharmacol. 2003, 463, 133-143). […] Therefore, a foot shock-induced vocalization paradigm in adult rats was used to assess efficacy of centrally acting GABAB receptor ligands. Behavioral measurements were carried out on male Wistar rats (200-250 g, Toxicoop, Hungary). Rats were housed in groups of four in plastic cages with a wire grid top in a temperature and light-controlled laboratory animal care unit (22±2° C., 12-h light/dark cycle, lights on at 6:00 AM) with ad libitum access to commercial pellet rat food and tap water. Investigations were approved by the Local Ethical Committee of Gedeon Richter Plc. and were carried out in strict compliance with the European Directive 2010/63/EU regarding the care and use of laboratory animals for experimental procedures and all efforts were made to minimize the number of animals as well as their suffering. In order to evoke emission of ultrasounds, animals were footshocked after a habituation period of 30 s (6 shocks, 1 s, 0.8 mA each, inter-shock interval 10 s) in a sound attenuated shocking chamber (Experimetria, 40×40×80 cm). Investigational compounds were administered at the dose of 1 mg/kg in a solid dispersion formulation in distilled water 1 h before shocking per os. Vocalizations were measured right after the last footshock for 10 min with a Metris Sonotrack system and the total time of vocalizations was registered. Vocalization of parallel vehicle treated animals was considered as control value and inhibition percent was calculated for each compound. At approximately 75 min after treatment and behavioral measurements, blood and brain samples were harvested in order to determine exposures associated with in vivo activity.

[1] = Plasma and brain levels after the USV assay; type: in vivo, rat; settings: 1 mg/kg per os, approximately 75 min after treatment; for brain exposure at 1 mg/kg: rat brain; for plasma exposure at 1 mg/kg: rat plasma
Protocol: as §1
In Table 2 compounds of this invention measured in the USV assay are listed. In Table 3 plasma and brain levels of compounds of this invention are listed.

T1 sequence (O88871 41-940): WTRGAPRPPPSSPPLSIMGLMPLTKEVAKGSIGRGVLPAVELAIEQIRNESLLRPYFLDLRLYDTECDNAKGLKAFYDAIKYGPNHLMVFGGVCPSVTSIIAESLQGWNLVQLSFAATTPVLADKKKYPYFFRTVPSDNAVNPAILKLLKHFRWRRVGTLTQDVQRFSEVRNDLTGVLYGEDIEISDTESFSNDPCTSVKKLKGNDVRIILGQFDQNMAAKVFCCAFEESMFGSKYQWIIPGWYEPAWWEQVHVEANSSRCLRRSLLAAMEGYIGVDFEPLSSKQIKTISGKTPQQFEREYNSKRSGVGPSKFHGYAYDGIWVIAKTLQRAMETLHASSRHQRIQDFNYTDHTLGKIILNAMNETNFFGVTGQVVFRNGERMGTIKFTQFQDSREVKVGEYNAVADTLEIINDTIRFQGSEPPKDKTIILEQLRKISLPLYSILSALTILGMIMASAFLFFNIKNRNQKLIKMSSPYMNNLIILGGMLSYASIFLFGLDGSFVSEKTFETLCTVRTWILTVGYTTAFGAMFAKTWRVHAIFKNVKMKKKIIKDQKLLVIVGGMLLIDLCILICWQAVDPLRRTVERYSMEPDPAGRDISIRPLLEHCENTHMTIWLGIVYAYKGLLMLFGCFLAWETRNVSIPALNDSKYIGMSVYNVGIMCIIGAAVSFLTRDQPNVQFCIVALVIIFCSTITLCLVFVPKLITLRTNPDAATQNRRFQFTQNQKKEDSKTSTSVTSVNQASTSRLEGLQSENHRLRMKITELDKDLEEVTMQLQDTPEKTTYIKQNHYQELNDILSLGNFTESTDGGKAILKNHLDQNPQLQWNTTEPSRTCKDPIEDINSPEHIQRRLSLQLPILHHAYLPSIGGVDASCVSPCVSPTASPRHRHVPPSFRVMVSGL
T1 sequence (Q9Z0U4 17-960 limits assumed): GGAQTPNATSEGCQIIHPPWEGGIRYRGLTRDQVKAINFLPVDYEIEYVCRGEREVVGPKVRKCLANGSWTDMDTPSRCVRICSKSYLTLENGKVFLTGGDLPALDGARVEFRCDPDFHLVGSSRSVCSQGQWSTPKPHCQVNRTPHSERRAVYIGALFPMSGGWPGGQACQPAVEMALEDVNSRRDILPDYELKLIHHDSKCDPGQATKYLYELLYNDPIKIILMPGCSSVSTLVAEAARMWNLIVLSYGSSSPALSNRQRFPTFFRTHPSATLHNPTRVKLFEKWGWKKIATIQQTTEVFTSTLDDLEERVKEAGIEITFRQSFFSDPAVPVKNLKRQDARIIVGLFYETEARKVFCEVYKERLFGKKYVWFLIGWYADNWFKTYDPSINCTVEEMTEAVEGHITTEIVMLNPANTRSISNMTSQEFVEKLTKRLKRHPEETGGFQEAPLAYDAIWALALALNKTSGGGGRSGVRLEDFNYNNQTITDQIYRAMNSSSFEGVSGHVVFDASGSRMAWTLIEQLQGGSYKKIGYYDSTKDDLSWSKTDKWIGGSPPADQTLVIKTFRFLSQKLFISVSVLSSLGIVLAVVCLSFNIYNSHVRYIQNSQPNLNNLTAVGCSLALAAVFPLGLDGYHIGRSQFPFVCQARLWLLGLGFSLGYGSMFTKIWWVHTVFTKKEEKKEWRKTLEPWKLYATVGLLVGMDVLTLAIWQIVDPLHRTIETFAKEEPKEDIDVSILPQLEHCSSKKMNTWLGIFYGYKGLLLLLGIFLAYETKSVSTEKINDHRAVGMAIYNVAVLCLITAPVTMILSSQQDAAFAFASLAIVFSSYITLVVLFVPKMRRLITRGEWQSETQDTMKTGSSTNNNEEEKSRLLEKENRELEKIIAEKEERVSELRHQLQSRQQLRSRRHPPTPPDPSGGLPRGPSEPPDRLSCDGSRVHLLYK

SMILES	EC50 (GABAB receptor) [nM]	USV inhibition at 1 mg/kg (%) (adult rats)	brain exposure at 1 mg/kg [1] [ng/g]	plasma exposure at 1 mg/kg [1] [ng/mL]
C[C@@]1(C(=O)O)CCCN(c2c3c(nc4cc([C@H]5CC[C@H](C(F)(F)F)CC5)nn24)CCCCC3)C1 [Example 35]	1 to 10	57	35	207
Cc1nc2cc([C@H]3CC[C@H](C(F)(F)F)CC3)nn2c(N2CCC[C@](C)(C(=O)O)C2)c1C(C)C [Example 11]	1 to 10	71	68	146
CCc1c(C)nc2cc([C@H]3CC[C@H](C(F)(F)F)CC3)nn2c1N1CCC[C@@](CC)(C(=O)O)C1 [Example 28]	10 to 100	–	–	–
COc1c(C)nc2cc([C@H]3CC[C@H](C(F)(F)F)CC3)nn2c1N1CCC[C@@](C)(C(=O)O)C1 (single isomer, unassigned) [Example 20]	100 to 1000	–	–	–
CC[C@]1(C(=O)O)CCCN(c2c(C(C)C)c(C)nc3cc(C4CCC(F)(F)CC4)nn23)C1 [Example 31]	10 to 100	–	–	–
Cc1nc2c(F)c([C@H]3CC[C@H](C(F)(F)F)CC3)nn2c(N2CCC[C@@](C)(C(=O)O)C2)c1C(C)C (single isomer, unassigned) [Example 16]	< 1	100	36	131
Cc1nc2cc([C@H]3CC[C@H](C(F)(F)F)CC3)nn2c(N2CCC[C@@](C(=O)O)(C(C)C)C2)c1C(C)C [Example 14]	1 to 10	–	–	–
CCCC1(C(=O)O)CCCN(c2c(C(C)C)c(C)nc3cc([C@H]4CC[C@H](C(F)(F)F)CC4)nn23)C1 (single isomer, unassigned) [Example 4]	1 to 10	–	–	–
CCCC1(C(=O)O)CCCN(c2c(C(C)C)c(C)nc3cc([C@H]4CC[C@H](C(F)(F)F)CC4)nn23)C1 (single isomer, unassigned) [Example 5]	1 to 10	–	–	–
CCc1nc2cc([C@H]3CC[C@H](C(F)(F)F)CC3)nn2c(N2CCC[C@@](C)(C(=O)O)C2)c1CC [Example 33]	–	63	34	172
CC[C@@]1(C(=O)O)CCCN(c2c(C(C)C)c(C)nc3c(F)c([C@H]4CC[C@H](C(F)(F)F)CC4)nn23)C1 (single isomer, unassigned) [Example 18]	< 1	75	30	175
CC[C@]1(C(=O)O)CCCN(c2c(OC)c(C)nc3cc([C@H]4CC[C@H](C(F)(F)F)CC4)nn23)C1 [Example 21]	10 to 100	–	–	–
Cc1nc2cc([C@H]3CC[C@H](C(F)(F)F)CC3)nn2c(N2CCCC(CF)(C(=O)O)C2)c1C(C)C (single isomer, unassigned) [Example 6]	1 to 10	–	–	–
C[C@]1(C(=O)O)CCCN(c2c3c(nc4cc([C@H]5CC[C@H](C(F)(F)F)CC5)nn24)COCC3)C1 [Example 37]	100 to 1000	–	–	–
C[C@]1(C(=O)O)CCCN(c2c3c(nc4cc([C@H]5CC[C@H](C(F)(F)F)CC5)nn24)CCOC3)C1 [Example 36]	100 to 1000	–	–	–
COc1c(C)nc2c(F)c([C@H]3CC[C@H](C(F)(F)F)CC3)nn2c1N1CCC[C@](C)(C(=O)O)C1 (single isomer, unassigned) [Example 23]	1 to 10	–	–	–
C[C@@]1(C(=O)O)CCCN(c2c3c(nc4cc([C@H]5CC[C@H](C(F)(F)F)CC5)nn24)COCC3)C1 [Example 42]	100 to 1000	–	–	–

SMILES	EC50 (GABAB receptor) [nM]	USV inhibition at 1 mg/kg (%) (adult rats)	brain exposure at 1 mg/kg [1] [ng/g]	plasma exposure at 1 mg/kg [1] [ng/mL]
COc1c(C)nc2cc([C@H]3CC[C@H](C(F)(F)F)CC3)nn2c1N1CCC[C@](C)(C(=O)O)C1 (single isomer, unassigned) [Example 19]	10 to 100	–	–	–
CC[C@@]1(C(=O)O)CCCN(c2c(C(C)C)c(C)nc3cc(C4CCC(F)(F)CC4)nn23)C1 (single isomer, unassigned) [Example 32]	10 to 100	–	–	–
CC[C@@]1(C(=O)O)CCCN(c2c(C(C)C)c(C)nc3cc([C@H]4CC[C@H](C(F)(F)F)CC4)nn23)C1 (single isomer, unassigned) [Example 13]	< 1	97	31	124
CCc1c(C)nc2cc([C@H]3CC[C@H](C(F)(F)F)CC3)nn2c1N1CCC[C@@](C)(C(=O)O)C1 [Example 27]	1 to 10	–	–	–
Cc1nc2cc([C@H]3CC[C@H](C(F)(F)F)CC3)nn2c(N2CCCC(CF)(C(=O)O)C2)c1C(C)C (single isomer, unassigned) [Example 7]	< 1	–	–	–
Cc1nc2c(F)c([C@H]3CC[C@H](C(F)(F)F)CC3)nn2c(N2CCC[C@](C)(C(=O)O)C2)c1C(C)C (single isomer, unassigned) [Example 15]	1 to 10	89	53	170
COc1c(C)nc2c(F)c([C@H]3CC[C@H](C(F)(F)F)CC3)nn2c1N1CCC[C@@](C)(C(=O)O)C1 (single isomer, unassigned) [Example 24]	10 to 100	–	–	–
Cc1nc2cc([C@H]3CC[C@H](C(F)(F)F)CC3)nn2c(N2CCC[C@@H](C(=O)O)C2)c1C(C)C [Example 10]	1 to 10	–	–	–
Cc1nc2cc(C3CCC(F)(F)CC3)nn2c(N2CCC[C@@](C)(C(=O)O)C2)c1C(C)C (single isomer, unassigned) [Example 30]	1 to 10	–	–	–
CC[C@@]1(C(=O)O)CCCN(c2c(OC)c(C)nc3cc([C@H]4CC[C@H](C(F)(F)F)CC4)nn23)C1 [Example 22]	100 to 1000	–	–	–
C[C@@]1(C(=O)O)CCCN(c2c3c(nc4cc([C@H]5CC[C@H](C(F)(F)F)CC5)nn24)CCCC3)C1 [Example 34]	1 to 10	–	–	–
CC[C@]1(C(=O)O)CCCN(c2c(C(C)C)c(C)nc3c(F)c([C@H]4CC[C@H](C(F)(F)F)CC4)nn23)C1 (single isomer, unassigned) [Example 17]	1 to 10	79	74	135
Cc1nc2c(F)c(C3CCC(F)(F)CC3)nn2c(N2CCC[C@@](C)(C(=O)O)C2)c1C(C)C [Example 40]	1 to 10	–	–	–
Cc1nc2cc(C3CCC(F)(F)CC3)nn2c(N2CCC[C@](C)(C(=O)O)C2)c1C(C)C [Example 29]	10 to 100	–	–	–
CC[C@@]1(C(=O)O)CCCN(c2c(OC)c(C)nc3c(F)c([C@H]4CC[C@H](C(F)(F)F)CC4)nn23)C1 (single isomer, unassigned) [Example 26]	10 to 100	–	–	–
CC[C@]1(C(=O)O)CCCN(c2c(OC)c(C)nc3c(F)c([C@H]4CC[C@H](C(F)(F)F)CC4)nn23)C1 (single isomer, unassigned) [Example 25]	10 to 100	–	–	–
Cc1nc2cc([C@H]3CC[C@H](C(F)(F)F)CC3)nn2c(N2CCC[C@H](C(=O)O)C2)c1C(C)C [Example 1, (3S)-1-[5-Methyl-6-(propan-2-yl)-2-[trans-4-(trifluoromethyl)cyclohexyl]pyrazolo[1,5-a]pyrimidin-7-yl]piperidine-3-carboxylic Acid]	1 to 10	–	–	–
